Test results reported in ChEMBL document CHEMBL3421631, “Structure-activity relationship and properties optimization of a series of quinazoline-2,4-diones as inhibitors of the canonical Wnt pathway” (Eur J Med Chem, 2015).

How the values were obtained:
[1] = Permeability of the compound at 10 uM by PAMPA-BBB assay in presence of mixture of porcine brain lipids dodecane; type: ADME; conditions: pig
[2] = Intrinsic clearance in male mouse liver microsomes at 1 uM by UPLC/TOF-MS analysis; type: ADME; conditions: read-out: CLH
[3] = Metabolic stability in mouse plasma assessed as compound remaining measured at 10 uM after 3 hrs by LC-MS/MS analysis; type: ADME, cell-free; conditions: read-out: Stability
[4] = Cmax in SCID mouse at 100 mg/kg, po qd for 14 days; type: ADME, organism-based; design: dose 100 mg/kg, route oral; conditions: in vivo
[5] = Half life in CD1 mouse at 5 mg/kg, po; type: ADME, organism-based; design: dose 5 mg/kg, route oral; conditions: in vivo
[6] = AUC in SCID mouse at 100 mg/kg, po qd for 1 to 7 days and 14 to 21 days; type: ADME, organism-based; design: dose 100 mg/kg, route oral; conditions: plasma
MDR1 = test: Apparent permeability from apical to basolateral side in MDCK cells expressing human MDR1 at 10 uM after 120 mins by UPLC/TOF-MS analysis; type: ADME, cell-based, Canis lupus familiaris; conditions: dog, read-out: permeability
[7] = AUC in SCID mouse at 300 mg/kg, po qd for 1 to 3 days; type: ADME, organism-based; design: dose 300 mg/kg, route oral; conditions: plasma
[8] = Tmax in SCID mouse at 100 mg/kg, po qd for 14 days; type: ADME, organism-based; design: dose 100 mg/kg, route oral; conditions: in vivo
[9] = Toxicity in human NCI-N87 cells xenografted po dosed SCID mouse qd for 14 days; type: organism-based; conditions: in vivo
[10] = Half life in SCID mouse at 300 mg/kg, po qd for 1 to 3 days; type: ADME, organism-based; design: dose 300 mg/kg, route oral; conditions: in vivo
[11] = Cmax in SCID mouse at 100 mg/kg, po qd for 1 to 7 days and 14 to 21 days; type: ADME, organism-based; design: dose 100 mg/kg, route oral; conditions: in vivo
[12] = Tmax in SCID mouse at 300 mg/kg, po qd for 1 to 3 days; type: ADME, organism-based; design: dose 300 mg/kg, route oral; conditions: in vivo
[13] = Ratio of drug level in brain to plasma in CD1 mouse at 5 mg/kg, po; type: ADME, organism-based; design: dose 5 mg/kg, route oral; conditions: read-out: BPR
[14] = Half life in SCID mouse at 100 mg/kg, po qd for 1 to 7 days and 14 to 21 days; type: ADME, organism-based; design: dose 100 mg/kg, route oral; conditions: in vivo
[15] = AUC in SCID mouse at 100 mg/kg, po qd for 14 days; type: ADME, organism-based; design: dose 100 mg/kg, route oral; conditions: plasma
Mus musculus [16] = test: Volume of distribution at steady state in CD1 mouse at 5 mg/kg, po; type: ADME, organism-based; design: dose 5 mg/kg, route oral; conditions: in vivo
[17] = Half life in SCID mouse at 100 mg/kg, po qd for 14 days; type: ADME, organism-based; design: dose 100 mg/kg, route oral; conditions: in vivo
[18] = Cmax in CD1 mouse at 5 mg/kg, po; type: ADME, organism-based; design: dose 5 mg/kg, route oral; conditions: in vivo
[19] = Tmax in SCID mouse at 100 mg/kg, po qd for 1 to 7 days and 14 to 21 days; type: ADME, organism-based; design: dose 100 mg/kg, route oral; conditions: in vivo
Mus musculus [20] = test: AUC (0 to infinity) in CD1 mouse at 5 mg/kg, po; type: ADME, organism-based, Plasma; design: time infinity, dose 5 mg/kg, route oral; conditions: in vivo
[21] = Oral bioavailability in CD1 mouse at 5 mg/kg; type: ADME, organism-based; conditions: in vivo
[22] = Cmax in SCID mouse at 300 mg/kg, po qd for 1 to 3 days; type: ADME, organism-based; design: dose 300 mg/kg, route oral; conditions: in vivo

## COc1ccccc1N1CCN(C(=O)[C@H]2CC[C@H](Cn3c(=O)[nH]c4ccccc4c3=O)CC2)CC1
[1]
  permeability: impermeable

## O=c1[nH]c2ccccc2c(=O)n1C[C@H]1CC[C@H](C(=O)N2CCN(c3ncccn3)CC2)CC1
[1]
  permeability: permeable

## O=c1[nH]c2ccccc2c(=O)n1C[C@H]1CC[C@H](C(=O)N2CCN(c3cnccn3)CC2)CC1
[1]
  permeability: permeable

## O=c1[nH]c2ccccc2c(=O)n1C[C@H]1CC[C@H](C(=O)N2CCN(Cc3ccccc3)CC2)CC1
[1]
  permeability: impermeable

## O=c1[nH]c2ccccc2c(=O)n1C[C@H]1CC[C@H](C(=O)N2CCN(CC3CC3)CC2)CC1
[1]
  permeability: permeable

## CC(C)CN1CCN(C(=O)[C@H]2CC[C@H](Cn3c(=O)[nH]c4ccccc4c3=O)CC2)CC1
[1]
  permeability: permeable

## CC(=O)N1CCN(C(=O)[C@H]2CC[C@H](Cn3c(=O)[nH]c4ccccc4c3=O)CC2)CC1
[1]
  permeability: permeable

## COCC(=O)N1CCN(C(=O)[C@H]2CC[C@H](Cn3c(=O)[nH]c4ccccc4c3=O)CC2)CC1
[1]
  permeability: permeable

## CC(C)C(=O)N1CCN(C(=O)[C@H]2CC[C@H](Cn3c(=O)[nH]c4ccccc4c3=O)CC2)CC1
[1]
  permeability: permeable

## O=C(C1CC1)N1CCN(C(=O)[C@H]2CC[C@H](Cn3c(=O)[nH]c4ccccc4c3=O)CC2)CC1
[1]
  permeability: permeable

## O=C(c1ccno1)N1CCN(C(=O)[C@H]2CC[C@H](Cn3c(=O)[nH]c4ccccc4c3=O)CC2)CC1
[1]
  permeability: permeable

## O=C(C1CCC1)N1CCN(C(=O)[C@H]2CC[C@H](Cn3c(=O)[nH]c4ccccc4c3=O)CC2)CC1
[1]
  permeability: permeable

## COc1cccc2[nH]c(=O)n(C[C@H]3CC[C@H](C(=O)N4CCN(C(=O)C(C)C)CC4)CC3)c(=O)c12
[1]
  permeability: permeable

## CC(C)C(=O)N1CCN(C(=O)[C@H]2CC[C@H](Cn3c(=O)[nH]c4cccc(Cl)c4c3=O)CC2)CC1
[1]
  permeability: permeable

## CC(C)C(=O)N1CCN(C(=O)[C@H]2CC[C@H](Cn3c(=O)[nH]c4cccc(F)c4c3=O)CC2)CC1
[1]
  permeability: permeable

## Cc1ccc2[nH]c(=O)n(C[C@H]3CC[C@H](C(=O)N4CCN(C(=O)C(C)C)CC4)CC3)c(=O)c2c1
[1]
  permeability: permeable

## COc1ccc2[nH]c(=O)n(C[C@H]3CC[C@H](C(=O)N4CCN(C(=O)C(C)C)CC4)CC3)c(=O)c2c1
[1]
  permeability: permeable

## CC(C)C(=O)N1CCN(C(=O)[C@H]2CC[C@H](Cn3c(=O)[nH]c4cc(Cl)ccc4c3=O)CC2)CC1
[1]
  permeability: permeable

## Cc1cccc2c(=O)n(C[C@H]3CC[C@H](C(=O)N4CCN(C(=O)C(C)C)CC4)CC3)c(=O)[nH]c12
[1]
  permeability: permeable

## COc1ccc2[nH]c(=O)n(C[C@H]3CC[C@H](C(=O)N4CCN(C(=O)C5CC5)CC4)CC3)c(=O)c2c1
[2]
  microsomal CLint at 1 µM: 65.6 µL/min/mg
[3]
  remaining at 3 h, 10 µM: 78%
[1]
  permeability: permeable

## COc1ccc2c(c1)c(=O)n(C[C@H]1CC[C@H](C(=O)N3CCN(C(=O)C4CC4)CC3)CC1)c(=O)n2C
[2]
  microsomal CLint at 1 µM: 139 µL/min/mg
[3]
  remaining at 3 h, 10 µM: 98%
[1]
  permeability: permeable

## COCC(=O)N1CCN(C(=O)[C@H]2CC[C@H](Cn3c(=O)[nH]c4ccc(OC)cc4c3=O)CC2)CC1
[2]
  microsomal CLint at 1 µM: 14.5 µL/min/mg
[3]
  remaining at 3 h, 10 µM: 74%
[1]
  permeability: permeable

## COCC(=O)N1CCN(C(=O)[C@H]2CC[C@H](Cn3c(=O)c4cc(OC)ccc4n(C)c3=O)CC2)CC1
[4]
  Cmax: 27 µM
[5]
  half-life: 2.2 h
[6]
  AUC: 101 µM·h
MDR1
  Papp A→B at 2 h, 10 µM: 1.3 ×10⁻⁶ cm/s
[7]
  AUC: 193 µM·h
[8]
  Tmax: 0.5 h
[9]
  MTD at 336 h: 250 mg/kg
[2]
  microsomal CLint at 1 µM: 23 µL/min/mg
[10]
  half-life: 5.4 h
[11]
  Cmax: 22 µM
[12]
  Tmax: 1 h
[13]
  Kp: 0.03
[14]
  half-life: 1.6 h
[3]
  remaining at 3 h, 10 µM: 95%
[15]
  AUC at 336 h: 113 µM·h
[1]
  permeability: permeable
Mus musculus [16]
  Vdss: 0.83 L/kg
[17]
  half-life: 2.2 h
[18]
  Cmax: 1.3 µM
[19]
  Tmax: 0.5 h
Mus musculus [20]
  AUC: 4.9 µM·h
[21]
  bioavailability: 42%
[22]
  Cmax: 35 µM

## COc1ccc2[nH]c(=O)n(C[C@H]3CC[C@H](C(=O)N4CCN(C(C)=O)CC4)CC3)c(=O)c2c1
[2]
  microsomal CLint at 1 µM: 41.2 µL/min/mg
[3]
  remaining at 3 h, 10 µM: 100%
[1]
  permeability: permeable

## COc1ccc2c(c1)c(=O)n(C[C@H]1CC[C@H](C(=O)N3CCN(C(C)=O)CC3)CC1)c(=O)n2C
[2]
  microsomal CLint at 1 µM: 33.3 µL/min/mg
[3]
  remaining at 3 h, 10 µM: 100%
[1]
  permeability: permeable
